A short description of the experiment: Inhibition of p37 in Vaccinia virus Copenhagen infected in African green monkey Vero cells assessed as reduction in viral reproduction incubated for 4 days by neutral red dye based colorimetric analysis.

As for `O=C(NC12CC3CC(CC(C3)C1)C2)c1ccc(C(F)(F)F)cc1`, the 50% inhibitory concentration (IC50) is 0.133 µM. With `CCC12CC3CC(C1)CC(NC(=O)c1ccc(C(F)(F)F)cc1)(C3)C2`, the concentration for half-maximal inhibition (IC50) is 4.1 µM.

For the molecule `CN(C(=O)c1ccc(C(F)(F)F)cc1)C12CC3CC(CC(C3)C1)C2`, the IC50 stood at 4.85 µM. As to `O=C(NCC12CC3CC(CC(C3)C1)C2)c1ccc(C(F)(F)F)cc1`, the IC50 is 0.27 µM. With `O=C(NCC12CC3CC(CC(C3)C1)C2)c1ccc(Br)cc1`, the IC50 was determined as 8.3 µM. Take `O=C(NC1C2CC3CC(C2)CC1C3)c1ccc(Br)cc1` (stereo not drawn): the IC50 amounted to 3.06 µM.

On to `O=C(NC1C2CC3CC(C2)CC1C3)c1ccc(C(F)(F)F)cc1` (stereo not drawn), for which the IC50 was determined as 0.216 µM. Consider `O=C(NNC(=O)C12CC3CC(CC(C3)C1)C2)c1ccc(C(F)(F)F)cc1`, for which the IC50 stood at 1.07 µM.

Turning to `CC12CC3CC(C)(C1)CC(C(=O)NNC(=O)c1ccc(C(F)(F)F)cc1)(C3)C2`, the IC50 amounted to 30.9 µM. As to `CCC12CC3CC(C1)CC(C(=O)NNC(=O)c1ccc(C(F)(F)F)cc1)(C3)C2`, the IC50 was determined as 12.5 µM. The figure for `O=C(NNC(=O)c1ccc(C(F)(F)F)cc1)NC12CC3CC(CC(C3)C1)C2` is 36.3 µM. With `O=C(NN=C1C2CC3CC(C2)CC1C3)c1ccc(C(F)(F)F)cc1`, the IC50 was found to be 198 µM. The value for `O=C(NNC1C2CC3CC(C2)CC1C3)c1ccc(C(F)(F)F)cc1` (stereo not drawn) was 2.8 µM; that for `O=C(NNC1C2CC3CC1CC(Cl)(C3)C2)c1ccc(C(F)(F)F)cc1` (stereo not drawn) was 3.52 µM; that for `CC(NNC(=O)c1ccc(C(F)(F)F)cc1)C12CC3CC(CC(C3)C1)C2` (stereo not drawn) was 0.515 µM. Take `CCC12CC3CC(C1)CC(NNC(=O)c1ccc(C(F)(F)F)cc1)(C3)C2`: the IC50 worked out at 1.66 µM. The figure for `CC12CC3CC(C1)CC(NC(=O)c1ccc(C(F)(F)F)cc1)(C3)C2` is 8.98 µM. Turning to `O=C(NN1C(=O)[C@@H]2[C@@H]3C=C[C@@H]([C@H]4C[C@@H]34)[C@@H]2C1=O)c1ccc(C(F)(F)F)cc1` [Tecovirimat], the half-inhibitory concentration (IC50) was 0.0027 µM.

The values above are taken from BindingDB's records for doi:10.1016/j.ejmech.2021.113485 (Samara State Technical University, 2021).
